According to patent US10167262B2, “Herbicidal substituted 3-arylpyrazoles” (FMC CORPORATION, priority 2014, dated 2019):

How the values were obtained:
Test in all cases: Test E pre-/postemergence greenhouse test, plant response rating 0-100
Type in all cases: in vivo
[1] = test system: dayflower (Virginia (VA) dayflower, Commelina virginica); settings: Postemergence, scale 0 to 100
Method in brief: (§1)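 Sow seeds in silt loam and treat preemergence; at the same time, spray postemergence on 1- to 4-leaf plants in peat/vermiculite mix. Use a non-phytotoxic solvent plus surfactant as carrier. Hold 14–21 days in greenhouse, then score visually 0–100 against controls.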

[2] = test system: sandbur (southern sandbur, Cenchrus echinatus); settings: Postemergence, scale 0 to 100
Method in brief: as §1

[3] = test system: wild poinsettia (Euphorbia heterophylla); settings: Postemergence, scale 0 to 100
Method in brief: as §1

[4] = test system: barnyardgrass (Echinochloa crus-galli); settings: Postemergence, scale 0 to 100
Method in brief: as §1

[5] = test system: arrowleaf sida (Sida rhombifolia); settings: Postemergence
Method in brief: as §1

[6] = test system: field bindweed (Convolvulus arvensis); settings: Postemergence, scale 0 to 100
Method in brief: as §1

corn (Zea mays) = settings: Postemergence, scale 0 to 100
Method in brief: as §1

[7] = test system: palmer pigweed (Amaranthus palmeri); settings: Postemergence, scale 0 to 100
Method in brief: as §1

[8] = test system: Italian ryegrass (Lolium multiflorum); settings: Postemergence, scale 0 to 100
Method in brief: as §1

[9] = test system: Brazilian crabgrass (Digitaria horizontalis); settings: Postemergence, scale 0 to 100
Method in brief: as §1

[10] = test system: waterhemp (common waterhemp, Amaranthus rudis); settings: Postemergence, scale 0 to 100
Method in brief: as §1

[11] = test system: hairy beggarticks (Bidens pilosa); settings: Postemergence, scale 0 to 100
Method in brief: as §1

Fc1ccc(NN=C(c2ccccc2)c2c[nH]nc2-c2cc(Cl)cc(Cl)c2)cc1 [Compound 35]
Plant response rating, Dayflower, VA ([1]; 31 g ai/ha): 0 | Plant response rating, Dayflower, VA ([1]; 62 g ai/ha): 0 | Plant response rating, Dayflower, VA ([1]; 125 g ai/ha): 0 | Plant response rating, Dayflower, VA ([1]; 250 g ai/ha): 0 | Plant response rating, Dayflower, VA ([1]; 500 g ai/ha): 0 | Plant response rating, Sandbur ([2]; 31 g ai/ha): 0 | Plant response rating, Sandbur ([2]; 62 g ai/ha): 0 | Plant response rating, Sandbur ([2]; 125 g ai/ha): 0 | Plant response rating, Sandbur ([2]; 250 g ai/ha): 0 | Plant response rating, Sandbur ([2]; 500 g ai/ha): 0 | Plant response rating, Poinsettia, Wild ([3]; 31 g ai/ha): 0 | Plant response rating, Poinsettia, Wild ([3]; 62 g ai/ha): 0 | Plant response rating, Poinsettia, Wild ([3]; 125 g ai/ha): 0 | Plant response rating, Poinsettia, Wild ([3]; 250 g ai/ha): 0 | Plant response rating, Poinsettia, Wild ([3]; 500 g ai/ha): 0 | Plant response rating, Barnyardgrass ([4]; 31 g ai/ha): 0 | Plant response rating, Barnyardgrass ([4]; 62 g ai/ha): 0 | Plant response rating, Barnyardgrass ([4]; 125 g ai/ha): 0 | Plant response rating, Barnyardgrass ([4]; 250 g ai/ha): 0 | Plant response rating, Barnyardgrass ([4]; 500 g ai/ha): 0 | Plant response rating, Arrowleaf Sida ([5]; 31 g ai/ha, scale 0 to 100): 50 | Plant response rating, Arrowleaf Sida ([5]; 62 g ai/ha, scale 0 to 100): 60 | Plant response rating, Arrowleaf Sida ([5]; 125 g ai/ha, scale 0 to 100): 70 | Plant response rating, Arrowleaf Sida ([5]; 250 g ai/ha, scale 0 to 100): 80 | Plant response rating, Arrowleaf Sida ([5]; 500 g ai/ha, scale 0 to 100 (0 no effect, 100 complete control)): 90 | Plant response rating, Field Bindweed ([6]; 31 g ai/ha): 0 | Plant response rating, Field Bindweed ([6]; 62 g ai/ha): 0 | Plant response rating, Field Bindweed ([6]; 125 g ai/ha): 0 | Plant response rating, Field Bindweed ([6]; 250 g ai/ha): 0 | Plant response rating, Field Bindweed ([6]; 500 g ai/ha): 15 | Plant response rating, Corn (corn (Zea mays); 31 g ai/ha): 0 | Plant response rating, Corn (corn (Zea mays); 62 g ai/ha): 0 | Plant response rating, Corn (corn (Zea mays); 125 g ai/ha): 0 | Plant response rating, Corn (corn (Zea mays); 250 g ai/ha): 0 | Plant response rating, Corn (corn (Zea mays); 500 g ai/ha): 0 | Plant response rating, Pigweed, Palmer ([7]; 31 g ai/ha): 75 | Plant response rating, Pigweed, Palmer ([7]; 62 g ai/ha): 80 | Plant response rating, Pigweed, Palmer ([7]; 125 g ai/ha): 98 | Plant response rating, Pigweed, Palmer ([7]; 250 g ai/ha): 100 | Plant response rating, Pigweed, Palmer ([7]; 500 g ai/ha): 100 | Plant response rating, Ryegrass, Italian ([8]; 31 g ai/ha): 0 | Plant response rating, Ryegrass, Italian ([8]; 62 g ai/ha): 0 | Plant response rating, Ryegrass, Italian ([8]; 125 g ai/ha): 0 | Plant response rating, Ryegrass, Italian ([8]; 250 g ai/ha): 0 | Plant response rating, Ryegrass, Italian ([8]; 500 g ai/ha): 0 | Plant response rating, Crabgrass, Brazil ([9]; 31 g ai/ha): 0 | Plant response rating, Crabgrass, Brazil ([9]; 62 g ai/ha): 0 | Plant response rating, Crabgrass, Brazil ([9]; 125 g ai/ha): 0 | Plant response rating, Crabgrass, Brazil ([9]; 250 g ai/ha): 0 | Plant response rating, Crabgrass, Brazil ([9]; 500 g ai/ha): 10 | Plant response rating, Waterhemp ([10]; 62 g ai/ha): 85 | Plant response rating, Waterhemp ([10]; 125 g ai/ha): 95 | Plant response rating, Waterhemp ([10]; 250 g ai/ha): 98 | Plant response rating, Waterhemp ([10]; 500 g ai/ha): 100 | Plant response rating, Beggarticks ([11]; 31 g ai/ha): 85 | Plant response rating, Beggarticks ([11]; 62 g ai/ha): 98 | Plant response rating, Beggarticks ([11]; 125 g ai/ha): 98 | Plant response rating, Beggarticks ([11]; 250 g ai/ha): 98 | Plant response rating, Beggarticks ([11]; 500 g ai/ha): 100
